According to patent US11208400B2, “Substituted 6-(1H-pyrazol-1-yl)pyrimidin-4-amine derivatives and uses thereof” (Bayer Aktiengesellschaft, priority 2016, dated 2021):
pIC50: −log10 of the molar value.

biological target: T1, human Npt2a (Homo sapiens, UniProt Q06495); test: Npt2a activity cell based assay, membrane potential dye, CHO T-REx hNpt2a cells; settings: doxycycline-induced, depolarization by sodium phosphate influx, average or median values if tested more than once
T1 construct: expressed in transfected cells
T1 sequence (Q06495 1-639): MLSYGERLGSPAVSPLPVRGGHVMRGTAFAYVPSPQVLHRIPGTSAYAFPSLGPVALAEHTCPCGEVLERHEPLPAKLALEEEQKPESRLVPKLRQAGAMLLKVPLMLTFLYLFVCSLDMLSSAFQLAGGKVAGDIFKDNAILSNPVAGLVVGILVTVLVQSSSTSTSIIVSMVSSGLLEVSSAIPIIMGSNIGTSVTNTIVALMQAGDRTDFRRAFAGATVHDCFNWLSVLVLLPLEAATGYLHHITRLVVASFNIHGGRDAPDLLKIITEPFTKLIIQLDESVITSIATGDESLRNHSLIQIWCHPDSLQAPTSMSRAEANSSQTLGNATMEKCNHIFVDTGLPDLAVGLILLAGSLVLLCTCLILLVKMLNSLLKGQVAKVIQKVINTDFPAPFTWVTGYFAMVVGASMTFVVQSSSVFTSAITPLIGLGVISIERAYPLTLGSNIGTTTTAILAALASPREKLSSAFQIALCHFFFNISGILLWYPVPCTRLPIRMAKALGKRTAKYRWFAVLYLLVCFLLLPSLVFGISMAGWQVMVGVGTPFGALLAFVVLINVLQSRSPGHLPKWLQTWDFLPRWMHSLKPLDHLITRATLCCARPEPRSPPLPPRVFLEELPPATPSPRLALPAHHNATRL
Outline: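 Doxycycline-induced (0.5 μg/mL, 24 h) CHO T-REx cells were loaded with membrane potential dye in sodium-free NHE buffer (pH 7.4) and exposed to compound (50 μM–1 nM, 5 min, room temperature).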

`Cc1nn(-c2cc(Nc3c(C)c(-c4ccc(F)cc4)nn3CC3CC3)ncn2)c(C)c1CO` [Example 282, [1-(6-{[1-(cyclopropylmethyl)-3-(4-fluorophenyl)-4-methyl-1H-pyrazol-5-yl]amino}pyrimidin-4-yl)-3,5-dimethyl-1H-pyrazol-4-yl]methanol] and `Cc1nn(-c2cc(Nc3c(C)c(-c4ccc(F)cc4)nn3CC3CC3)ncn2)c(C)c1C(C)O` (single isomer, unassigned) [Example 329, 1-[1-(6-{[1-(cyclopropylmethyl)-3-(4-fluorophenyl)-4-methyl-1H-pyrazol-5-yl]amino}pyrimidin-4-yl)-3,5-dimethyl-1H-pyrazol-4-yl]ethanol] are within 0.2 log units of each other in pIC50: 7.14 for the first, 7.17 for the second.

Going from `Cc1nn(-c2cc(Nc3c(C)c(-c4ccc(C#N)cc4)nn3CCC3CC3)ncn2)c(C(F)F)c1Cl` [Example 237, 4-[5-({6-[4-chloro-5-(difluoromethyl)-3-methyl-1H-pyrazol-1-yl]pyrimidin-4-yl}amino)-1-(2-cyclopropylethyl)-4-methyl-1H-pyrazol-3-yl]benzonitrile] to `Cc1cc(C)n(-c2cc(Nc3c(C)c(-c4ccc(C#N)cc4)nn3CC3CC3)ncn2)n1` [Example 141, 4-[1-(cyclopropylmethyl)-5-{[6-(3,5-dimethyl-1H-pyrazol-1-yl)pyrimidin-4-yl]amino}-4-methyl-1H-pyrazol-3-yl]benzonitrile], the pIC50 rises from 7.82 to 8.52 (0.70 log units).

Compared with `Cc1cc(C(C)(C)O)n(-c2cc(Nc3c(C)c(-c4ccc(OC(F)(F)F)cc4)nn3CC3CC3)ncn2)n1` [Example 291, 2-{1-[6-({1-(cyclopropylmethyl)-4-methyl-3-[4-(trifluoromethoxy)phenyl]-1H-pyrazol-5-yl}amino)pyrimidin-4-yl]-3-methyl-1H-pyrazol-5-yl}propan-2-ol], `Cc1nn(-c2cc(Nc3c(C)c(-c4ccc(C(F)(F)F)cc4)nn3CC3CC3)ncn2)c(C(C)(C)O)c1Cl` [Example 294, 2-{4-chloro-1-[6-({1-(cyclopropylmethyl)-4-methyl-3-[4-(trifluoromethyl)phenyl]-1H-pyrazol-5-yl}amino)pyrimidin-4-yl]-3-methyl-1H-pyrazol-5-yl}propan-2-ol] is 1.11 log units lower in pIC50: 6.96 for the first, 5.85 for the second. The first is the more potent here.

Going from `CCc1c(-c2ccc(C#N)cc2)nn(C)c1Nc1cc(-n2nc(C)cc2C(F)F)ncn1` [Example 216, 4-[5-({6-[5-(difluoromethyl)-3-methyl-1H-pyrazol-1-yl]pyrimidin-4-yl}amino)-4-ethyl-1-methyl-1H-pyrazol-3-yl]benzonitrile] to `Cc1cc(C(F)F)n(-c2cc(Nc3nn(C)c(-c4ccc(F)cc4)c3Cl)ncn2)n1` [Example 346, N-[4-chloro-5-(4-fluorophenyl)-1-methyl-1H-pyrazol-3-yl]-6-[5-(difluoromethyl)-3-methyl-1H-pyrazol-1-yl]pyrimidin-4-amine], the pIC50 rises from 7.92 to 8.40 (0.48 log units).

First: CCc1c(Nc2cc(-n3nc4c(c3C)C(=O)CC4)ncn2)nn(C)c1-c1ccc(F)cc1 [Example 274, 2-(6-{[4-ethyl-5-(4-fluorophenyl)-1-methyl-1H-pyrazol-3-yl]amino}pyrimidin-4-yl)-3-methyl-5,6-dihydrocyclopenta[c]pyrazol-4(2H)-one]
Second: CCc1c(Nc2cc(-n3nc(C)c(Cl)c3C(F)F)ncn2)nn(C)c1-c1ccc(F)cc1 [Example 270, 6-[4-chloro-5-(difluoromethyl)-3-methyl-1H-pyrazol-1-yl]-N-[4-ethyl-5-(4-fluorophenyl)-1-methyl-1H-pyrazol-3-yl]pyrimidin-4-amine]
The pIC50 of the first is 0.56 log units lower: 7.36 for the first, 7.92 for the second. The second is the more potent here.

Compared with `CCc1c(Nc2cc(-n3ccc(C)n3)ncn2)nn(C)c1-c1ccc(F)cc1` [Example 242, N-[4-ethyl-5-(4-fluorophenyl)-1-methyl-1H-pyrazol-3-yl]-6-(3-methyl-1H-pyrazol-1-yl)pyrimidin-4-amine], `CCc1c(Nc2cc(-n3nc(C)c(C(=O)N4CC(F)(F)C4)c3C)ncn2)nn(C)c1-c1ccc(F)cc1` [Example 124, (3,3-difluoroazetidin-1-yl) [1-(6-{[4-ethyl-5-(4-fluorophenyl)-1-methyl-1H-pyrazol-3-yl]amino}pyrimidin-4-yl)-3,5-dimethyl-1H-pyrazol-4-yl]methanone] is 0.87 log units lower in pIC50: 7.68 for the first, 6.81 for the second. The first is the more potent here.

Compared with `CCOC(=O)c1c(C)nn(-c2cc(Nc3c(OC)c(-c4ccc(C#N)cc4)nn3C)ncn2)c1C` [Example 446, ethyl 1-(6-{[3-(4-cyanophenyl)-4-methoxy-1-methyl-1H-pyrazol-5-yl]amino}pyrimidin-4-yl)-3,5-dimethyl-1H-pyrazole-4-carboxylate], `CCOC(=O)c1c(C)nn(-c2cc(Nc3n[nH]c(-c4ccc(C#N)cc4)c3C)ncn2)c1C` [Example 136, ethyl 1-(6-{[5-(4-cyanophenyl)-4-methyl-1H-pyrazol-3-yl]amino}pyrimidin-4-yl)-3,5-dimethyl-1H-pyrazole-4-carboxylate] is 1.48 log units lower in pIC50: 7.92 for the first, 6.44 for the second. The first is the more potent here.

First: CCOC(=O)c1c(C)nn(-c2cc(Nc3c(C)c(-c4ccc(F)cc4F)nn3C)ncn2)c1C [Example 363, ethyl 1-(6-{[3-(2,4-difluorophenyl)-1,4-dimethyl-1H-pyrazol-5-yl]amino}pyrimidin-4-yl)-3,5-dimethyl-1H-pyrazole-4-carboxylate]
Second: CCOC(=O)c1c(C)nn(-c2cc(Nc3n[nH]c(-c4ccc(F)cc4)c3C)ncn2)c1C [Example 60, ethyl 1-(6-{[5-(4-fluorophenyl)-4-methyl-1H-pyrazol-3-yl]amino}pyrimidin-4-yl)-3,5-dimethyl-1H-pyrazole-4-carboxylate]
The pIC50 of the first is 0.55 log units lower: 6.82 for the first, 7.37 for the second.

Compared with `Cc1nn(-c2cc(Nc3nn(CC4CC4)c(-c4ccc(F)cc4)c3Cl)ncn2)c(C(F)F)c1Cl` [Example 184, N-[4-chloro-1-(cyclopropylmethyl)-5-(4-fluorophenyl)-1H-pyrazol-3-yl]-6-[4-chloro-5-(difluoromethyl)-3-methyl-1H-pyrazol-1-yl]pyrimidin-4-amine], `Cc1nn(-c2cc(Nc3c(C)c(-c4ccc(F)cc4)nn3CC3CC3)ncn2)c(C)c1CN1CC(F)C1` [Example 452, N-[1-(cyclopropylmethyl)-3-(4-fluorophenyl)-4-methyl-1H-pyrazol-5-yl]-6-{4-[(3-fluoroazetidin-1-yl)methyl]-3,5-dimethyl-1H-pyrazol-1-yl}pyrimidin-4-amine] is 1.88 log units higher in pIC50: 5.92 for the first, 7.80 for the second.

Going from `Cc1nn(-c2cc(Nc3c(Cl)c(-c4ccc(F)cc4)nn3C)ncn2)c(C)c1C(C)(C)O` [Example 277, 2-[1-(6-{[4-chloro-3-(4-fluorophenyl)-1-methyl-1H-pyrazol-5-yl]amino}pyrimidin-4-yl)-3,5-dimethyl-1H-pyrazol-4-yl]propan-2-ol] to `Cc1nn(-c2cc(Nc3c(C)c(-c4ccc(F)cn4)nn3CC3CC3)ncn2)c(C)c1C(C)(C)O` [Example 458, 2-[1-(6-{[1-(cyclopropylmethyl)-3-(5-fluoropyridin-2-yl)-4-methyl-1H-pyrazol-5-yl]amino}pyrimidin-4-yl)-3,5-dimethyl-1H-pyrazol-4-yl]propan-2-ol], the pIC50 falls from 6.82 to 5.81 (1.01 log units).

Compared with `CCc1c(-c2ccc(F)cc2)nn(C2CC2)c1Nc1cc(-n2nc(C)cc2C)ncn1` [Example 119, N-[1-cyclopropyl-4-ethyl-3-(4-fluorophenyl)-1H-pyrazol-5-yl]-6-(3,5-dimethyl-1H-pyrazol-1-yl)pyrimidin-4-amine], `CCc1c(-c2ccc(F)cc2)nn(CC2CCC2)c1Nc1cc(-n2nc(C)cc2C)ncn1` [Example 182, N-[1-(cyclobutylmethyl)-4-ethyl-3-(4-fluorophenyl)-1H-pyrazol-5-yl]-6-(3,5-dimethyl-1H-pyrazol-1-yl)pyrimidin-4-amine] is 0.91 log units higher in pIC50: 6.06 for the first, 6.97 for the second. The second is the more potent here.

First: CCc1c(-c2ccc(F)cc2)nn(CCOCc2ccccc2)c1Nc1cc(-n2nc(C)cc2C)ncn1 [Example 32, N-{1-[2-(benzyloxy)ethyl]-4-ethyl-3-(4-fluorophenyl)-1H-pyrazol-5-yl}-6-(3,5-dimethyl-1H-pyrazol-1-yl)pyrimidin-4-amine]
Second: CCc1c(-c2ccc(F)cc2)n[nH]c1Nc1cc(-n2nc(C)cc2C)ncn1 [Example 13, 6-(3,5-dimethyl-1H-pyrazol-1-yl)-N-[4-ethyl-3-(4-fluorophenyl)-1H-pyrazol-5-yl]pyrimidin-4-amine]
The pIC50 of the first is 1.05 log units lower: 6.16 for the first, 7.21 for the second. The second is the more potent here.

First: Cc1cc(C)n(-c2cc(Nc3nn(CC(F)F)c(-c4ccc(C#N)cc4)c3C)ncn2)n1 [Example 252, 4-[1-(2,2-difluoroethyl)-3-{[6-(3,5-dimethyl-1H-pyrazol-1-yl)pyrimidin-4-yl]amino}-4-methyl-1H-pyrazol-5-yl]benzonitrile]
Second: COCCn1nc(-c2ccc(C(F)F)cc2)c(C)c1Nc1cc(-n2nc(C)cc2C)ncn1 [Example 536, N-{3-[4-(difluoromethyl)phenyl]-1-(2-methoxyethyl)-4-methyl-1H-pyrazol-5-yl}-6-(3,5-dimethyl-1H-pyrazol-1-yl)pyrimidin-4-amine]
The pIC50 of the first is 0.45 log units lower: 7.32 for the first, 7.77 for the second.

With `CCc1c(Nc2cc(-n3nc(C)c(C(=O)N4CCCC4C)c3C)ncn2)nn(C)c1-c1ccc(F)cc1` (single isomer, unassigned) [Example 106, [1-ent-(6-{[4-ethyl-5-(4-fluorophenyl)-1-methyl-1H-pyrazol-3-yl]amino}pyrimidin-4-yl)-3,5-dimethyl-1H-pyrazol-4-yl](2-methylpyrrolidin-1-yl)methanone] the pIC50 was 6.92.
